In US6784201B2, “Benzothiepines having activity as inhibitors of ileal bile acid transport and taurocholate uptake” (G.D. Searle & Company, priority 1994, dated 2004):
Read-outs that look alike come from different tables or passages of the source.

Experiments:
[1] = tested on: Rat Ileal Uptake of [14C]-Taurocholate; assay: In vivo assay of rat ileal uptake of [14C]-taurocholate into bile (ileal loop); conditions: for activity at 100 µM: read-out: % of Control Transport of TC in Rat Ileum @ 0.1 mM; for EC50: rat ileal loop, read-out: TC-uptake Ileal Loop EC(50)
Experimental: In Vivo Assay of Compounds that Inhibit Rat Ileal Uptake of [^14C]-Taurocholate into Bile
(See “Metabolism of 3α,7β-dihydroxy-7α-methyl-5β-cholanoic acid and 3α,7β-dihydroxy-7α-methyl-5β-cholanoic acid in hamsters” in Biochimica et Biophysica Acta 833 (1985) 196-202 by Une et al.)
Male wistar rats (200-300 g) are anesthetized with inactin @100 mg/kg. Bile ducts are cannulated with a 10″ length of PE10 tubing. The small intestine is exposed and laid out on a gauze pad. A canulae (⅛″ luer lock, tapered female adapter) is inserted at 12 cm from the junction of the small intestine and the cecum. A slit is cut at 4 cm from this same junction (utilizing a 8 cm length of ileum). 20 ml of warm Dulbecco's phosphate buffered saline, pH 6.5 (PBS) is used to flush out the intestine segment. The distal opening is cannulated with a 20 cm length of silicone tubing (0.02″ I.D.×0.037″ O.D.). The proximal cannulae is hooked up to a peristaltic pump and the intestine is washed for 20 min with warm PBS at 0.25 ml/min. Temperature of the gut segment is monitored continuously. At the start of the experiment, 2.0 ml of control sample ([^14C]-taurocholate @ 0.05 mi/ml with 5 mM cold taurocholate) is loaded into the gut segment with a 3 ml syringe and bile sample collection is begun. Control sample is infused at a rate of 0.25 ml/min for 21 min. Bile samples fractions are collected every 3 minute for the first 27 minutes of the procedure. After the 21 min of sample infusion, the ileal loop is washed out with 20 ml of warm PBS (using a 30 ml syringe), and then the loop is washed out for 21 min with warm PBS at 0.25 ml/min. A second perfusion is initiated as described above but this with test compound being administered as well (21 min administration followed by 21 min of wash out) and bile sampled every 3 min for the first 27 min. If necessary, a third perfusion is performed as above that typically contains the control sample.

[2] = tested on: H14 cells; assay: In vitro assay of uptake of [14C]-alanine; type: cell-based, hamster; conditions: Mesocricetus auratus
In short: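 H14 cells (BHK expressing human IBAT) incubated 2 h at 37 °C with compound and labelled alanine, in the same format as the 3 μM [14C]-taurocholate uptake assay, in DMEM with 0.2% fatty acid-free BSA. After cold PBS washes, cell-associated radioactivity measured by scintillation counting.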

[3] = target: T1, human IBAT (Homo sapiens, UniProt Q12908); assay: In vitro assay of IBAT-mediated uptake of [14C]-taurocholate (TC) in H14 cells; type: cell-based
T1 construct: expressed in transfected cells; host or cells: Baby hamster kidney (BHK) cells, clone H14
T1 sequence (Q12908 1-348): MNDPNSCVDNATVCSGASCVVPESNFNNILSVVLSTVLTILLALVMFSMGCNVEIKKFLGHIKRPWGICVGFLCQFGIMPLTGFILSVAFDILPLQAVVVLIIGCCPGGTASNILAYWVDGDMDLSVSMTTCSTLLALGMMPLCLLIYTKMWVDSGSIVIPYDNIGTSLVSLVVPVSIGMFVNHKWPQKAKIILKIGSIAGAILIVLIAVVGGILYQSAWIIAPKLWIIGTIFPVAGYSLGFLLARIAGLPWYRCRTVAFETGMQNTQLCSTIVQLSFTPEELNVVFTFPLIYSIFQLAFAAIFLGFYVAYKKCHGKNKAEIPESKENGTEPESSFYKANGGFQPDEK
In short: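 BHK cells stably expressing human IBAT (H14) were incubated 2 h at 37° C with compound and 3 μM final [14C]-taurocholate in DMEM (4.5 g/L glucose) plus 0.2% fatty acid-free BSA. After cold PBS washes, cell-associated radioactivity was measured by scintillation counting.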

[4] = tested on: Rabbit Ileal brush border membranes; assay: [3H]taurocholate uptake in rabbit brush border membrane vesicles (BBMV); type: biochemical; conditions: read-out: TC-uptake (BBMV) IC(50)
Experimental: [^3H]Taurocholate Uptake in Rabbit Brush Border Membrane Vesicles (BBMV)
Rabbit Ileal brush border membranes were prepared from frozen iheal mucosa by the calcium precipitation method describe by Malathi et al. (Reference: (1979) Biochimica Biophysica Acta, 554, 259). The method for measuring taurocholate was essentially as described by Kramer et al. (Reference: (1992) Biochimica Biophysica Acta, 1111, 93) except the assay volume was 200 μl instead of 100 μl.

[5] = target: ACAT; assay: Acyl-CoA; cholesterol acyl transferase (ACAT), hamster liver microsomes; type: biochemical; conditions: read-out: ACAT (liver) IC(50)
Experimental: Acyl-CoA; Cholesterol Acyl Transferase (ACAT)
Hamster liver and rat intestinal microsomes were prepared from tissue as described previously (Reference: (1980) J. Biol. Chem. 255, 9098) and used as a source of ACAT enzyme. The assay consisted of a 2.0 ml incubation containing 24 μM Oleoyl-CoA (0.05 μCi) in a 50 mM sodium phosphate, 2 mM DTT ph 7.4 buffer containing 0.25% BSA and 200 μg of microsomal protein. The assay was initiated by the addition of oleoyl-CoA. The reaction went for 5 min at 37° C. and was terminated by the addition of 8.0 ml of chloroform/methanol (2:1). […] The chloroform phase was taken to dryness and then spotted on a silica gel 60 TLC plate and developed in hexane/ethyl ether (9:1). The amount of cholesterol ester formed was determined by measuring the amount of radioactivity incorporated into the cholesterol oleate spot on the TLC plate with a Packard instaimager.

[6] = H14 cells, Table 5, read-out: IC50 uM (In vitro Taurocholate Cell Uptake)
[7] = Table 6, read-out: TC-uptake (H14 cells) IC(50)

Row | SMILES | IC50 [3, 6] [µM] | EC50 [1] [nM] | IC50 [4] [nM] | IC50 [3, 7] [µM] | IC50 [5] [nM] | activity at 100 µM ([1]; Rattus norvegicus) [%] | inhibition at 25 µM [2] [%] | activity at 400 µM ([1]; Rattus norvegicus, 0.4 mM, read-out: % of Control Transport of TC in Rat Ileum) [%] | inhibition at 100 µM [2] [%] | activity at 150 µM ([1]; Rattus norvegicus, 0.15 mM, read-out: % of Control Transport of TC in Rat Ileum) [%] | activity at 500 µM ([1]; Rattus norvegicus, 0.5 mM, read-out: % of Control Transport of TC in Rat Ileum) [%] | inhibition at 5 µM ([2]; 5 μM) [%] | inhibition at 200 µM ([2]; 200 μM) [%]
1 | CCCC[C@]1(CC)CS(=O)(=O)c2cc(OC)ccc2[C@H](c2ccccc2)[C@@H]1O [Example 26, (3α,4α,5α) 3-Butyl-3-ethyl-4-hydroxy-8-methoxy-5-phenyl-2,3,4,5-tetrahydrobenzothiepine-1,1-dioxide] | 2 |  |  |  |  | 87.9 | 31 |  |  |  |  |  | 
2 | CCCC[C@]1(CC)CS(=O)(=O)c2ccc(NO)cc2[C@@H](c2ccccc2)[C@H]1O [Example 38, (3α,4β,5β) 3-Butyl-3-ethyl-4-hydroxy-7-hydroxyamino-5-phenyl-2,3,4,5-tetrahydrobenzothiepine-1,1-dioxide] | 0.3 | 12000 | 2000 | 0.3 | 15000 | 20.6 |  |  |  |  |  | 11 | 
3 | CCCC[C@]1(CC)CS(=O)(=O)c2ccc(OC)cc2[C@@H](c2ccccc2)[C@H]1O [Example 49, (3α,4β,5β) 3-Butyl-3-ethyl-4-hydroxy-7-methoxy-5-phenyl-2,3,4,5-tetrahydrobenzothiepine-1,1-dioxide] | 0.15 | 12000 |  | 0.1 | 6000 | 21.2 |  |  |  |  |  |  | 21

The next lines start with results.

Row | IC50 [3, 6] [µM] | EC50 [1] [nM] | IC50 [4] [nM] | IC50 [3, 7] [µM] | IC50 [5] [nM] | SMILES | activity at 100 µM ([1]; Rattus norvegicus) [%] | inhibition at 25 µM [2] [%] | activity at 400 µM ([1]; Rattus norvegicus, 0.4 mM, read-out: % of Control Transport of TC in Rat Ileum) [%] | inhibition at 100 µM [2] [%] | activity at 150 µM ([1]; Rattus norvegicus, 0.15 mM, read-out: % of Control Transport of TC in Rat Ileum) [%] | activity at 500 µM ([1]; Rattus norvegicus, 0.5 mM, read-out: % of Control Transport of TC in Rat Ileum) [%] | inhibition at 5 µM ([2]; 5 μM) [%] | inhibition at 200 µM ([2]; 200 μM) [%]
4 | 5 |  |  |  |  | CCCC[C@@]1(CC)C[C@@H](c2ccccc2)c2ccccc2S(=O)(=O)C1 (relative stereo) [Example 9a, cis-3-Butyl-3-ethyl-5-phenyl-2,3,4,5-tetrahydrobenzothiepine-1,1-dioxide] | 53.7 | 0 |  |  |  |  |  | 
5 | 2 |  |  |  |  | CCCC[C@]1(CC)CS(=O)(=O)c2ccccc2[C@H](c2ccccc2)[C@@H]1O [Example 6c, (3α,4α,5α) 3-Butyl-3-ethyl-4-hydroxy-5-phenyl-2,3,4,5-tetrahydrobenzothiepine-1,1-dioxide] |  |  | 68.8 | 58.5 |  |  |  | 
6 | 0.6 | 31000 | 1500 | 0.6 |  | CCCC[C@]1(CC)CS(=O)(=O)c2ccccc2[C@@H](c2ccccc2)[C@H]1O [Example 6d, (3α,4β,5β) 3-Butyl-3-ethyl-4-hydroxy-5-phenyl-2,3,4,5-tetrahydrobenzothiepine-1,1-dioxide] |  |  |  | 77.7 | 30.2 | 16.1 |  | 
